Measured values as given in patent US20060009445A1, “Tumor-inhibiting anellated azepinone derivatives” (Faustus Forschungs CIE. Translational Cancer Research GmbH, priority 2002, published 2006).

Legend:
Format in all cases: cell-based
[1] = system: CCRF-CEM; assay: XTT assay, tumor-inhibiting effect in vitro, CCRF-CEM; details: Homo sapiens, incubation period 48 hours
Procedure: (§1) The tumor-inhibiting effect was tested in vitro in the XTT assay with an example of various cell lines. The incubation period was 48 hours (IC50 values in μM).

[2] = system: K-562; assay: XTT assay, tumor-inhibiting effect in vitro, K-562; details: Homo sapiens, K562, incubation period 48 hours
Procedure: as §1

[3] = system: MOLT-4; assay: XTT assay, tumor-inhibiting effect in vitro, MOLT-4; details: Homo sapiens, incubation period 48 hours
Procedure: as §1

[4] = system: COLO 205; assay: XTT assay, tumor-inhibiting effect in vitro, COLO 205; details: Homo sapiens, incubation period 48 hours
Procedure: as §1

[5] = system: HCT-15; assay: XTT assay, tumor-inhibiting effect in vitro, HCT-15; details: Homo sapiens, incubation period 48 hours
Procedure: as §1

[6] = system: HCT-116; assay: XTT assay, tumor-inhibiting effect in vitro, HCT-116; details: Homo sapiens, incubation period 48 hours
Procedure: as §1

[7] = system: HT-29; assay: XTT assay, tumor-inhibiting effect in vitro, HT-29; details: Homo sapiens, incubation period 48 hours
Procedure: as §1

[8] = system: SW-620; assay: XTT assay, tumor-inhibiting effect in vitro, SW-620; details: Homo sapiens, incubation period 48 hours
Procedure: as §1

[9] = system: MCF-7; assay: XTT assay, tumor-inhibiting effect in vitro, MCF-7; details: Homo sapiens, MCF7, incubation period 48 hours
Procedure: as §1

[10] = system: OVCAR 3; assay: XTT assay, tumor-inhibiting effect in vitro, OVCAR 3; details: Homo sapiens, incubation period 48 hours
Procedure: as §1

[11] = system: NCI-H460; assay: XTT assay, tumor-inhibiting effect in vitro, NCI-H460; details: Homo sapiens, incubation period 48 hours
Procedure: as §1

[12] = system: NCI-H226; assay: XTT assay, tumor-inhibiting effect in vitro, NCI-H226; details: Homo sapiens, incubation period 48 hours
Procedure: as §1

[13] = system: SK-MEL-5; assay: XTT assay, tumor-inhibiting effect in vitro, SK-MEL-5; details: Homo sapiens, incubation period 48 hours
Procedure: as §1

[14] = system: SK-MEL-28; assay: XTT assay, tumor-inhibiting effect in vitro, SK-MEL-28; details: Homo sapiens, incubation period 48 hours
Procedure: as §1

Structure (SMILES)	IC50 [1] [µM]	IC50 [2] [µM]	IC50 [3] [µM]	IC50 [4] [µM]	IC50 [5] [µM]	IC50 [6] [µM]	IC50 [7] [µM]	IC50 [8] [µM]	IC50 [9] [µM]	IC50 [10] [µM]	IC50 [11] [µM]	IC50 [12] [µM]	IC50 [13] [µM]	IC50 [14] [µM]
Oc1ccccc1/C=N/N=C1\Cc2c([nH]c3ccc(Br)cc23)-c2ccccc2N1 [KP1437]	1.66	1.56	2.9	5.25	0.74	2.56	6.61	3.83	10.4	6.82	9.51	7.19	10	7.98
NC(=S)N/N=C1\Cc2c([nH]c3ccc(Br)cc23)-c2ccccc2N1 [KP 1428]	5.47	48.4	2.63	13.3	24.1	26.4	9.46	22.8	20.7	2.59	14.4	30.1	19.4	18.5
